Target: P2X7 (Homo sapiens (Human), UniProt Q99572)
Assay: P2X7 antagonism in human PBMCs (IL-1β release, ELISA)
Type: cell-based
Details: 10 μM test compound, LPS 30 ng/ml + Bz-ATP 0.5 mM
Protocol: Human blood was collected using a blood donor program. PBMCs were isolated from blood using a Ficoll density gradient technique. Briefly, blood was laid on Ficoll solution and centrifuged at RT for 20 minutes at 2000 rpm. The buffy layer (between red blood cells and plasma) was carefully collected by aspiration, washed with PBS and centrifuged again at 1500 rpm for 15 minutes. The resulting cell pellet was washed and plated on 96 well-plates for experiments. For the Mouse/Human Whole Blood experiments, 150 μl of either mouse or human blood was platted on 96 well-plates. Lipopolysaccharide (LPS) (30 ng/ml) was added to each well and incubated for 1 hour. Test compounds were then added and incubated for 30 minutes. The P2X7 agonist, 2′(3′)-O-(4-benzoylbenzoyl) adenosine 5′-triphosphate (Bz-ATP) was then added at a final concentration of 0.5 mM (PBMC) or 1 mM (blood). Cells were incubated for an additional 1.5 hours. At that point, supernatant was collected and stored for IL-1β assay using manufacturer's protocol for enzyme-linked immunosorbent assay (ELISA). Data was expressed as percent control, where control is defined as the difference in IL-1β release in LPS+Bz-ATP samples and LPS only samples. Data was plotted as response (% control) versus concentration to generate IC50 values.

P2X7, sequence (Q99572 whole entry): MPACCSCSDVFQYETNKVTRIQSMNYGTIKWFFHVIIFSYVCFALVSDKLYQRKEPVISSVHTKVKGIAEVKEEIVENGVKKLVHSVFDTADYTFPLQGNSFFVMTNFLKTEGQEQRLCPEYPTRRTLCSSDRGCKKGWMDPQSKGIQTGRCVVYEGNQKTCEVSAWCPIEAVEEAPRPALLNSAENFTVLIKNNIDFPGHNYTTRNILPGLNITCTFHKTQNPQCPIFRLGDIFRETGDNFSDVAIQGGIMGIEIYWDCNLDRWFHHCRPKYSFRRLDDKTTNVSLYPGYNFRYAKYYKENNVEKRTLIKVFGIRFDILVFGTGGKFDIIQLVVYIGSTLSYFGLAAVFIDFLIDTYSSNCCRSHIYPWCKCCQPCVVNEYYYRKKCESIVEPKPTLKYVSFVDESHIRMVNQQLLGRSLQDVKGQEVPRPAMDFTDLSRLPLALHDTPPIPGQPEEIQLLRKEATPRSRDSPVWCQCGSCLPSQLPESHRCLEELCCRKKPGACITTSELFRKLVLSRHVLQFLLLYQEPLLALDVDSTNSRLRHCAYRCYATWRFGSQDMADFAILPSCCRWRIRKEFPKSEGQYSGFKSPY

Compound | PBMC 10 μM (% control)
Cc1nc2c(n1-c1ccccc1)CCN(C(=O)c1cccc(Cl)c1Cl)C2 [Example 331, (2,3-dichlorophenyl)(2-methyl-1-phenyl-6,7-dihydro-1H-imidazo[4,5-c]pyridin-5 (4H)-yl)methanone] | −11.0
Cc1cc(C)nc(-n2nnc3c2CCN(C(=O)c2cccc(C(F)(F)F)c2Cl)C3C)n1 (stereo not shown) [Example 253, (2-Chloro-3-(trifluoromethyl)phenyl)(1-(4,6-dimethylpyrimidin-2-yl)-4-methyl-6,7-dihydro-1H-[1,2,3]triazolo[4,5-c]pyridin-5(4H)-yl)methanone] | −2.6
Cc1c(C(=O)N2Cc3nnn(C4=NN=CC4)c3CC2C)cccc1C(F)(F)F (stereo not shown) [Example 154, (6-methyl-1-(1H-pyrazol-3-yl)-6,7-dihydro-1H-[1,2,3]triazolo[4,5-c]pyridin-5(4H)-yl)(2-methyl-3-(trifluoromethyl)phenyl)methanone] | −0.6
CC1c2nn(COCC[Si](C)(C)C)c(-c3ncc(F)cn3)c2CCN1C(=O)c1cccc(C(F)(F)F)c1Cl (stereo not shown) [Example 303, (2-chloro-3-(trifluoromethyl)phenyl)(3-(5-fluoropyrimidin-2-yl)-7-methyl-2-((2-(trimethylsilyl)ethoxy)methyl)-4,5-dihydro-2H-pyrazolo[3,4-c]pyridin-6(7H)-yl)methanone] | −1.6

— patent US10703749B2, “P2X7 modulators” (Janssen Pharmaceutica NV, priority 2013, dated 2020)
